From US6737383B1, “Herbicidal oxadiazolidines” (priority 1999, dated 2004)

What was measured:
blackgrass = assay: Test E blackgrass; type: in vivo, Alopecurus myosuroides; settings: Preemergence
winter barley = assay: Test E winter barley; type: in vivo, Hordeum vulgare; settings: Preemergence
morningglory = assay: Test B pre/postemergence morningglory; type: in vivo, Ipomoea hederacea
In short: (§1)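 Herbicidal effect was estimated by eye on a ten-point control scale after plants spent twelve to sixteen days in a greenhouse following soil or foliar treatment. Foliar sprays targeted plants at one to four leaves; all doses were formulated in a non-phytotoxic solvent with surfactant.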

green foxtail = assay: Test E green foxtail; type: in vivo, Setaria viridis; settings: Preemergence
pigweed = assay: Test B pre/postemergence pigweed; type: in vivo, Amaranthus retroflexus
In short: as §1

giant foxtail = assay: Test B pre/postemergence giant foxtail; type: in vivo, Setaria faberii
In short: as §1

Italian ryegrass = assay: Test E Italian ryegrass; type: in vivo, Lolium multiflorum; settings: Preemergence
winter wheat [1] = assay: Test E winter wheat; type: in vivo, Triticum aestivum; settings: Postemergence
In short: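 Postemergence: spray at 1–4 leaf stage, soil 60:40 sandy loam:potting mix; solvent + surfactant formulation; greenhouse 21–28 d; visual injury vs untreated controls.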

wild oat = assay: Test E wild oat; type: in vivo, Avena fatua; settings: Preemergence
winter wheat [2] = assay: Test E winter wheat; type: in vivo, Triticum aestivum; settings: Preemergence
[3] = Rate 500 g/ha, 0 to 100 scale (0 no effect, 100 complete control)
[4] = Rate 1000 g/ha, 0 to 100 scale, 0 no effect, 100 complete control
[5] = Rate 250 g/ha, 0 to 100 scale, 0 no effect, 100 complete control
[6] = Postemergence, Rate 125 g/ha, scale 0 to 10, 0 is no effect, 10 is complete control
[7] = Preemergence, Rate 62 g/ha, scale 0 to 10 (0 no effect, 10 complete control)
[8] = Preemergence, Rate 250 g/ha, scale of 0 to 10 where 0 is no effect and 10 is complete control
[9] = Preemergence, Rate 500 g/ha, scale of 0 to 10 where 0 is no effect and 10 is complete control
[10] = Rate 62 g/ha, Postemergence, scale of 0 to 10 where 0 is no effect and 10 is complete control
[11] = Rate 500 g/ha, Postemergence, scale 0 to 10, 0 no effect, 10 complete control
[12] = Rate 250 g/ha, 0 to 100 scale, 0 is no effect, 100 is complete control
[13] = Rate 1000 g/ha, 0 to 100 scale where 0 is no effect and 100 is complete control
[14] = Rate 500 g/ha, 0 to 100 scale, 0 is no effect, 100 is complete control
[15] = Rate 500 g/ha, 0 to 100 scale where 0 is no effect and 100 is complete control
[16] = Preemergence, Rate 62 g/ha, scale of 0 to 10 where 0 is no effect and 10 is complete control
[17] = Rate 125 g/ha, Postemergence, scale of 0 to 10 where 0 is no effect and 10 is complete control
[18] = Rate 125 g/ha, Preemergence, scale of 0 to 10 where 0 is no effect and 10 is complete control
[19] = Rate 250 g/ha, Postemergence, scale of 0 to 10 where 0 is no effect and 10 is complete control
[20] = Rate 125 g/ha, 0 to 100 scale (0 no effect, 100 complete control)

CC(C)N(C(=O)n1oc(=O)n(C2CCCCCC2)c1=O)c1ccccc1 [Compound 341]
Plant response rating, Blackgrass (blackgrass; Rate 250 g/ha, 0 to 100 scale): 40 | Plant response rating, Blackgrass (blackgrass; [3]): 60 | Plant response rating, Blackgrass (blackgrass; [4]): 90 | Plant response rating, Barley (winter) (winter barley; [5]): 70 | Plant response rating, Barley (winter) (winter barley; [3]): 60 | Plant response rating, Barley (winter) (winter barley; [4]): 80 | Plant response rating, Morningglory (morningglory; [6]): 7 | Plant response rating, Morningglory (morningglory; [7]): 0 | Morningglory plant response rating (0 to 10 scale) (morningglory; Preemergence, Rate 125 g/ha): 0 | Morningglory plant response rating (morningglory; [8]): 0 | Morningglory plant response rating (morningglory; [9]): 0 | Morningglory plant response rating (morningglory; [10]): 7 | Plant response rating, Morningglory (morningglory; [11]): 10 | Plant response rating, Green foxtail (green foxtail; Rate 250 g/ha, 0 to 100 scale): 25 | Plant response rating, Green foxtail (green foxtail; [3]): 55 | Plant response rating, Green foxtail (green foxtail; [4]): 85 | Plant response rating, Redroot pigweed (pigweed; [6]): 0 | Plant response rating, Redroot pigweed (pigweed; [7]): 0 | Redroot pigweed plant response rating (0 to 10 scale) (pigweed; Preemergence, Rate 125 g/ha): 0 | Redroot pigweed plant response rating (pigweed; [8]): 0 | Redroot pigweed plant response rating (pigweed; [9]): 8 | Redroot pigweed plant response rating (pigweed; [10]): 0 | Plant response rating, Redroot pigweed (pigweed; [11]): 6 | Plant response rating, Giant foxtail (giant foxtail; [6]): 0 | Plant response rating, Giant foxtail (giant foxtail; [7]): 9 | Giant foxtail plant response rating (0 to 10 scale) (giant foxtail; Preemergence, Rate 125 g/ha): 9 | Giant foxtail plant response rating (giant foxtail; [8]): 10 | Giant foxtail plant response rating (giant foxtail; [9]): 10 | Giant foxtail plant response rating (giant foxtail; [10]): 0 | Plant response rating, Giant foxtail (giant foxtail; [11]): 2 | Plant response rating, I. Ryegrass (Italian ryegrass; Rate 250 g/ha, 0 to 100 scale): 50 | Plant response rating, I. Ryegrass (Italian ryegrass; [3]): 55 | Plant response rating, I. Ryegrass (Italian ryegrass; [4]): 55 | Plant response rating, Wheat (winter) (winter wheat [1]; [12]): 70 | Plant response rating, Wheat (winter) (winter wheat [1]; [13]): 65 | Plant response rating, Wheat (winter) (winter wheat [1]; [14]): 65 | Plant response rating, Wild oat (wild oat; Rate 250 g/ha, 0 to 100 scale): 60 | Plant response rating, Wild oat (wild oat; [3]): 70 | Plant response rating, Wild oat (wild oat; [4]): 80 | Plant response rating, Wheat (winter) (winter wheat [2]; Rate 250 g/ha, 0 to 100 scale): 40 | Plant response rating, Wheat (winter) (winter wheat [2]; [3]): 50 | Plant response rating, Wheat (winter) (winter wheat [2]; [4]): 85

Cc1ccccc1-n1c(=O)on(C(=O)N(c2cccc(F)c2)C(C)C)c1=O [Compound 269]
Blackgrass plant response rating (0 to 100 scale) (blackgrass; Rate 250 g/ha): 40 | Plant response rating, Blackgrass (blackgrass; [15]): 30 | Plant response rating, Blackgrass (blackgrass; [4]): 40 | Barley (winter) plant response rating (0 to 100 scale) (winter barley; Rate 250 g/ha): 30 | Plant response rating, Barley (winter) (winter barley; [15]): 50 | Plant response rating, Barley (winter) (winter barley; [4]): 60 | Morningglory plant response rating (morningglory; [16]): 0 | Morningglory plant response rating (morningglory; [8]): 0 | Plant response rating, Morningglory (morningglory; [9]): 0 | Morningglory plant response rating (morningglory; [17]): 3 | Morningglory plant response rating (morningglory; [18]): 0 | Plant response rating, Morningglory (morningglory; [19]): 5 | Morningglory plant response rating (morningglory; [11]): 7 | Green foxtail plant response rating (0 to 100 scale) (green foxtail; Rate 250 g/ha): 60 | Plant response rating, Green foxtail (green foxtail; [15]): 70 | Plant response rating, Green foxtail (green foxtail; [4]): 100 | Redroot pigweed plant response rating (pigweed; [16]): 0 | Redroot pigweed plant response rating (pigweed; [8]): 4 | Plant response rating, Redroot pigweed (pigweed; [9]): 4 | Redroot pigweed plant response rating (pigweed; [17]): 4 | Redroot pigweed plant response rating (pigweed; [18]): 0 | Plant response rating, Redroot pigweed (pigweed; [19]): 5 | Redroot pigweed plant response rating (pigweed; [11]): 6 | Giant foxtail plant response rating (giant foxtail; [16]): 3 | Giant foxtail plant response rating (giant foxtail; [8]): 10 | Giant foxtail plant response rating (giant foxtail; [17]): 0 | Giant foxtail plant response rating (giant foxtail; [18]): 6 | Plant response rating, Giant foxtail (giant foxtail; [19]): 0 | Giant foxtail plant response rating (giant foxtail; [11]): 2 | I. Ryegrass plant response rating (0 to 100 scale) (Italian ryegrass; Rate 250 g/ha): 50 | Plant response rating, I. Ryegrass (Italian ryegrass; [15]): 60 | Plant response rating, I. Ryegrass (Italian ryegrass; [4]): 70 | Plant response rating, Wheat (winter) (winter wheat [1]; [13]): 55 | Wheat (winter) plant response rating (winter wheat [1]; Rate 250 g/ha, 0 to 100 scale where 0 is no effect and 100 is complete control): 50 | Plant response rating, Wheat (winter) (winter wheat [1]; [14]): 40 | Wild oat plant response rating (0 to 100 scale) (wild oat; Rate 250 g/ha): 70 | Plant response rating, Wild oat (wild oat; [15]): 70 | Plant response rating, Wild oat (wild oat; [4]): 70 | Wheat (winter) plant response rating (0 to 100 scale) (winter wheat [2]; Rate 250 g/ha): 60 | Plant response rating, Wheat (winter) (winter wheat [2]; [15]): 40 | Plant response rating, Wheat (winter) (winter wheat [2]; [4]): 50

CCC(CC)n1c(=O)on(C(=O)N(c2ccc(F)cc2F)C(C)C)c1=O [Compound 353]
Plant response rating, Blackgrass (blackgrass; [20]): 10 | Plant response rating, Blackgrass (blackgrass; Rate 250 g/ha, 0 to 100 scale): 50 | Plant response rating, Blackgrass (blackgrass; [3]): 55 | Plant response rating, Barley (winter) (winter barley; [20]): 10 | Plant response rating, Barley (winter) (winter barley; [5]): 20 | Plant response rating, Barley (winter) (winter barley; [3]): 30 | Plant response rating, Morningglory (morningglory; [6]): 3 | Plant response rating, Morningglory (morningglory; [7]): 0 | Morningglory plant response rating (0 to 10 scale) (morningglory; Preemergence, Rate 125 g/ha): 0 | Morningglory plant response rating (morningglory; [8]): 1 | Morningglory plant response rating (morningglory; [9]): 1 | Morningglory plant response rating (morningglory; [10]): 3 | Plant response rating, Morningglory (morningglory; [11]): 10 | Plant response rating, Green foxtail (green foxtail; [20]): 70 | Plant response rating, Green foxtail (green foxtail; Rate 250 g/ha, 0 to 100 scale): 100 | Plant response rating, Green foxtail (green foxtail; [3]): 100 | Plant response rating, Redroot pigweed (pigweed; [6]): 3 | Plant response rating, Redroot pigweed (pigweed; [7]): 7 | Redroot pigweed plant response rating (0 to 10 scale) (pigweed; Preemergence, Rate 125 g/ha): 10 | Redroot pigweed plant response rating (pigweed; [8]): 10 | Redroot pigweed plant response rating (pigweed; [9]): 10 | Redroot pigweed plant response rating (pigweed; [10]): 2 | Plant response rating, Redroot pigweed (pigweed; [11]): 6 | Plant response rating, Giant foxtail (giant foxtail; [6]): 3 | Plant response rating, Giant foxtail (giant foxtail; [7]): 9 | Giant foxtail plant response rating (0 to 10 scale) (giant foxtail; Preemergence, Rate 125 g/ha): 10 | Giant foxtail plant response rating (giant foxtail; [8]): 10 | Giant foxtail plant response rating (giant foxtail; [9]): 10 | Giant foxtail plant response rating (giant foxtail; [10]): 0 | Plant response rating, Giant foxtail (giant foxtail; [11]): 8 | Plant response rating, I. Ryegrass (Italian ryegrass; [20]): 40 | Plant response rating, I. Ryegrass (Italian ryegrass; Rate 250 g/ha, 0 to 100 scale): 90 | Plant response rating, I. Ryegrass (Italian ryegrass; [3]): 90 | Plant response rating, Wheat (winter) (winter wheat [1]; Rate 125 g/ha, 0 to 100 scale, 0 is no effect, 100 is complete control): 20 | Plant response rating, Wheat (winter) (winter wheat [1]; [12]): 30 | Plant response rating, Wheat (winter) (winter wheat [1]; [14]): 40 | Plant response rating, Wild oat (wild oat; [20]): 30 | Plant response rating, Wild oat (wild oat; Rate 250 g/ha, 0 to 100 scale): 55 | Plant response rating, Wild oat (wild oat; [3]): 85 | Plant response rating, Wheat (winter) (winter wheat [2]; [20]): 20 | Plant response rating, Wheat (winter) (winter wheat [2]; Rate 250 g/ha, 0 to 100 scale): 40 | Plant response rating, Wheat (winter) (winter wheat [2]; [3]): 60
